Data on 16 molecules can be found in paper PMC8704944, “From Far West to East: Joining the Molecular Architecture of Imidazole-like Ligands in HO-1 Complexes” (Pharmaceuticals, 2021).

Values joined by “and” are separate entries in the source; they are usually repeats but may differ in a detail not shown here. Equal entries are not always repeated. Structures can show the parent of a compound that is named as a salt.

The target of one data set is T1, HO-1 (Rattus norvegicus, UniProt P06762).
T1 construct: Rat spleen microsomal fractions were chosen to isolate HO-1 in its most native form; from tissue; host or cells: rat spleen (male Sprague-Dawley), 100,000 g microsomal pellet
T1 sequence (P06762 1-289): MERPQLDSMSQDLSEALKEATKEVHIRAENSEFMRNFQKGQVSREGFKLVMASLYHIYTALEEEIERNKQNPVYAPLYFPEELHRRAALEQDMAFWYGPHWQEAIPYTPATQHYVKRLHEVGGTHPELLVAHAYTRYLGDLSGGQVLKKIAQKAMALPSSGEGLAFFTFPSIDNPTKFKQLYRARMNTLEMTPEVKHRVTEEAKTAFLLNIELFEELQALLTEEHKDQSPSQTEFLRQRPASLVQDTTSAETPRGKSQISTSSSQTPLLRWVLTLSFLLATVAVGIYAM
In words: HO-1 enzymatic activity in the microsomal fraction of rat spleen (bilirubin formation). Format: biochemical. As to conditions: rat spleen microsomal fraction; mean ± SD of triplicate experiments. The procedure: The inhibitory potency of the novel compounds was evaluated reproducing in vitro the HO-1 catalytic cycle. Rat spleen microsomal fractions were chosen to isolate HO-1 in its most native form; indeed, it is well known that in basal conditions, HO-1 is highly expressed in spleen tissues. […] Among the three catabolites, bilirubin concentrations can easily be monitored spectrophotometrically; the lowest is the absorbance detected with the assay, and the highest is the potency of the putative inhibitor. Results obtained from the in vitro enzymatic assay are reported in Table 1, using Azalanstat as the reference compound.
Rat spleen microsomal fraction obtained by differential centrifugation, according to Ryter et al., was used as source of the HO-1 protein. As reported in the literature, HO-1 is abundant in the rat spleen. We chose this source because it represents the most native (i.e., closest to in vivo) form of HO-1. The experiments reported in the present paper complied with current Italian law and met the guidelines of the Institutional Animal Care and Use Committee of the Ministry of Health (Directorate-General for Animal Health and Veterinary Medicines, Italy) “Dosing of enzymatic activities in rat microsomes” (2018–2022), project code 02769.N.VLY. We used male albino rats of strain Sprague–Dawley (150 g body weight and age 45 d) to obtain spleen microsomal fraction. Rats had free access to water and were kept at room temperature with a natural photoperiod (12 h light–12 h dark cycle). Each rat was sacrificed, and their spleens were pooled and then homogenized in 50 mM Tris buffer, pH 7.4, containing 0.25 M sucrose, using a Potter–Elvehjem homogenizing system with a Teflon pestle. Rat spleen homogenate was centrifuged at 10,000× g for 20 min at 4 °C, and the supernatant was centrifuged at 100,000× g for 60 min at 4 °C. The 100,000 g pellet (microsomes) was resuspended in 100 mM potassium phosphate buffer, pH 7.8, containing MgCl2 2 mM. After measuring its protein concentration, the microsomal fraction was aliquoted and stored at −80 °C for up to 2 months.
Liver tissue was used to obtain biliverdin reductase. Liver tissue was homogenized on ice in 3 volumes of a solution 1.15% KCl w/v and Tris buffer 20 mM, pH 7.8. Rat liver homogenate was centrifuged at 10,000× g for 20 min at 4 °C, and the supernatant was centrifuged at 100,000× g for 1 h at 4 °C. The 100,000 g supernatant was aliquoted and stored at −80 °C after its protein concentration was measured.
Determination of HO-1 activity has been performed by measuring the bilirubin formation using the difference in absorbance at 464–530 nm as described by Ryter et al.. The incubation mixture contained the following in a final volume of 500 µL: 20 mM Tris–HCl, pH 7.4, (1 mg/mL) microsomal extract, 0.5–2 mg/mL biliverdin reductase, 1 mM NADPH, 2 mM glucose 6-phosphate (G6P), 1 U G6P dehydrogenase, 25 µM hemin, and 10 µL of DMSO (or the same volume of DMSO solution of test compounds to a final concentration of 100, 10, and 1 µM). Enzymatic reactions were carried out in the dark for 1 h at 37 °C in a circulating water bath. Then, 500 µL of chloroform was used to stop the reaction. The amount of bilirubin formed was measured in the chloroform phase, with a double-beam spectrophotometer as OD464–530 nm (extinction coefficient, 40 mM/cm for bilirubin). The enzymatic activity was defined as Units (one Unit is the amount of enzyme catalyzing the formation of 1 nmol of bilirubin/mg protein/h).
Usually IC50 stands for the concentration needed to halve the response being measured. On to `COc1cc2cc(C(=O)NCCCn3ccnc3)n(C)c2cc1OC` [Compound 4c, N-(3-(1H-Imidazol-1-yl)propyl)-5,6-dimethoxy-1-methyl-1H-indole-2-carboxamide], for which inhibition was half-maximal at 55.5 ± 3.82 µM (IC50). Take `Cc1ccc2c(c1)cc(C(=O)NCCCn1ccnc1)n2Cc1ccccc1` [Compound 8a, N-(3-(1H-Imidazol-1-yl)propyl)-1-benzyl-5-methyl-1H-indole-2-carboxamide]: 2060 ± 412 µM corresponded to half-maximal inhibition (IC50). In the case of `Cn1c(C(=O)NCCCn2ccnc2)cc2cc(OCc3ccccc3)ccc21` [Compound 4d, N-(3-(1H-Imidazol-1-yl)propyl)-5-(benzyloxy)-1-methyl-1H-indole-2-carboxamide], the “HO-1 IC50” value is recorded as “low micromolar range” and the IC50 was 1.03 ± 0.13 µM. `COc1ccc2c(c1)cc(C(=O)NCCCn1ccnc1)n2C` [Compound 4b, N-(3-(1H-Imidazol-1-yl)propyl)-5-methoxy-1-methyl-1H-indole-2-carboxamide]: the IC50 is > 100 µM and 113 µM. The molecule `Cc1ccc2c(c1)cc(C(=O)NCCCn1ccnc1)n2C` [Compound 4a, N-(3-(1H-Imidazol-1-yl)propyl)-1,5-dimethyl-1H-indole-2-carboxamide] came in with a half-inhibitory concentration (IC50) of 367 ± 34.5 µM. Still for that read-out and setting: in the case of `COc1ccc2c(c1)cc(C(=O)NCCCn1ccnc1)n2Cc1ccccc1` [Compound 8b, N-(3-(1H-Imidazol-1-yl)propyl)-1-benzyl-5-methoxy-1H-indole-2-carboxamide] it was > 100 µM and 349 µM; in that of `COc1cc2cc(C(=O)NCCCn3ccnc3)n(Cc3ccccc3)c2cc1OC` [Compound 8c, N-(3-(1H-Imidazol-1-yl)propyl)-1-benzyl-5,6-dimethoxy-1H-indole-2-carboxamide], 81 ± 4.65 µM. Regarding `O=C(NCCCn1ccnc1)c1cc2cc(OCc3ccccc3)ccc2[nH]1` [Compound 1, N-(3-(1H-Imidazol-1-yl)propyl)-5-(benzyloxy)-1H-indole-2-carboxamide], it took 89.6 ± 6.1 µM to reach half-maximal inhibition (IC50).

The data set is the same for the next values; noted with them: versus compound 1.
With `Cn1c(C(=O)NCCCn2ccnc2)cc2cc(OCc3ccccc3)ccc21` [Compound 4d, N-(3-(1H-Imidazol-1-yl)propyl)-5-(benzyloxy)-1-methyl-1H-indole-2-carboxamide], the “fold more potent than parent compound 1 (HO-1 IC50)” value amounted to 87 fold.

System in a further data set: not given
Test: not given
Settings: not given
What is called melting point is the temperature of the solid-liquid transition. Consider `COc1cc2cc(C(=O)NCCCn3ccnc3)n(Cc3ccccc3)c2cc1OC` (as salt: hydrochloride) [Compound 8c, N-(3-(1H-Imidazol-1-yl)propyl)-1-benzyl-5,6-dimethoxy-1H-indole-2-carboxamide], for which the melting point was 110 to 111 °C. Still for that read-out and setting: in the case of `Cc1ccc2c(c1)cc(C(=O)NCCCn1ccnc1)n2Cc1ccccc1` (as salt: hydrochloride) [Compound 8a, N-(3-(1H-Imidazol-1-yl)propyl)-1-benzyl-5-methyl-1H-indole-2-carboxamide] it was 178 to 179 °C; in that of `Cc1ccc2c(c1)cc(C(=O)NCCCn1ccnc1)n2C` (as salt: hydrochloride) [Compound 4a, N-(3-(1H-Imidazol-1-yl)propyl)-1,5-dimethyl-1H-indole-2-carboxamide], 102 to 103 °C. Still for that read-out and setting: for `COc1cc2cc(C(=O)NCCCn3ccnc3)n(C)c2cc1OC` (as salt: hydrochloride) [Compound 4c, N-(3-(1H-Imidazol-1-yl)propyl)-5,6-dimethoxy-1-methyl-1H-indole-2-carboxamide] the value was 146 to 147 °C; for `Cn1c(C(=O)NCCCn2ccnc2)cc2cc(OCc3ccccc3)ccc21` (as salt: hydrochloride) [Compound 4d, N-(3-(1H-Imidazol-1-yl)propyl)-5-(benzyloxy)-1-methyl-1H-indole-2-carboxamide], 174 to 175 °C; for `O=C(NCCCn1ccnc1)c1cc2cc(OCc3ccccc3)ccc2[nH]1` [Compound 1, N-(3-(1H-Imidazol-1-yl)propyl)-5-(benzyloxy)-1H-indole-2-carboxamide], 204 to 206 °C. `COc1ccc2c(c1)cc(C(=O)NCCCn1ccnc1)n2Cc1ccccc1` (as salt: hydrochloride) [Compound 8b, N-(3-(1H-Imidazol-1-yl)propyl)-1-benzyl-5-methoxy-1H-indole-2-carboxamide] returned a melting point of 151 to 152 °C. On the same count and under the same terms, for `COc1ccc2c(c1)cc(C(=O)NCCCn1ccnc1)n2C` (as salt: hydrochloride) [Compound 4b, N-(3-(1H-Imidazol-1-yl)propyl)-5-methoxy-1-methyl-1H-indole-2-carboxamide] the value was 121 to 122 °C.

Another data set relates to HO-1.
Test: not given
As to conditions: representative inhibitor, printed in picture of Figure 1; cited from earlier work.
For `FC(F)(F)c1ccc(SC[C@@H]2CO[C@@](CCc3ccc(Cl)cc3)(Cn3ccnc3)O2)nc1` [QC-80], the IC50 is 2.1 µM.

In another data set the test system is HO-2.
Test: not given
As to conditions: representative inhibitor, printed in picture of Figure 1; cited from earlier work.
On to `FC(F)(F)c1ccc(SC[C@@H]2CO[C@@](CCc3ccc(Cl)cc3)(Cn3ccnc3)O2)nc1` [QC-80], for which the IC50 was 16 µM.
